In ChEMBL document CHEMBL2439962, “Fighting Obesity and Metabolic Disorders with MGAT-2 Inhibitors” (ACS Med Chem Lett, 2013):

Key:
[1] = molecular target: T1, 2-acylglycerol O-acyltransferase 2 (Homo sapiens, UniProt Q3SYC2); experiment: Inhibition of human MGAT2 by LC/MS assay
[2] = molecular target: T1, 2-acylglycerol O-acyltransferase 2; experiment: Inhibition of human MGAT2 by SPA assay

T1 sequence (Q3SYC2 whole entry): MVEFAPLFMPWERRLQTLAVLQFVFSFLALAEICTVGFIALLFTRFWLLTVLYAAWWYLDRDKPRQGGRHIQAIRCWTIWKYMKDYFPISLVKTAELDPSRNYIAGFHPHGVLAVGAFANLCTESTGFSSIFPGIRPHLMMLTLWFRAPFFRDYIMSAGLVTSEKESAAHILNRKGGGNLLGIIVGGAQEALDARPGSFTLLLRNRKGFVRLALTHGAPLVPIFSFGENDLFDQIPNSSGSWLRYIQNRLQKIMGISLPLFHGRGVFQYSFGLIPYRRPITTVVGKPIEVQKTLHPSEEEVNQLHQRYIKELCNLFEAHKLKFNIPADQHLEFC

Structure (SMILES) | IC50 [1] [nM] | IC50 [2] [nM]
Cc1ccc(C2=C(C(=O)Nc3ccno3)C(=O)N[C@@](c3ccc(OCCCC(F)(F)F)cc3)(C(F)(F)F)C2)cc1 | 2 | 8
Cc1ccc(C2=C(C(=O)Nc3ccc(-c4nnn[nH]4)cc3)C(=O)N[C@@](c3ccc(OCCCC(F)(F)F)cc3)(C(F)(F)F)C2)cc1 | 7 | 9
